Measurements published in paper PMC5910040, “An Antarctic Extreme Halophile and Its Polyextremophilic Enzyme: Effects of Perchlorate Salts” (Astrobiology, 2018).
“And” between values parts separate entries of the source, which are not always exact repeats. Equal values may be shown once. “Also recorded” adds a separate entry of the source.

Key:
[1] = molecular target: T1, H. lacusprofundi β-galactosidase enzyme (Halorubrum lacusprofundi, UniProt B9LW38); assay: Steady-state kinetic inhibition of purified β-galactosidase (ONPG); format: biochemical; settings: for type of inhibition: Lineweaver-Burk / Dixon plots
T1 construct: made in house; host or cells: Halobacterium sp; NRC-1 (pRK42)
T1 sequence (B9LW38 1-700): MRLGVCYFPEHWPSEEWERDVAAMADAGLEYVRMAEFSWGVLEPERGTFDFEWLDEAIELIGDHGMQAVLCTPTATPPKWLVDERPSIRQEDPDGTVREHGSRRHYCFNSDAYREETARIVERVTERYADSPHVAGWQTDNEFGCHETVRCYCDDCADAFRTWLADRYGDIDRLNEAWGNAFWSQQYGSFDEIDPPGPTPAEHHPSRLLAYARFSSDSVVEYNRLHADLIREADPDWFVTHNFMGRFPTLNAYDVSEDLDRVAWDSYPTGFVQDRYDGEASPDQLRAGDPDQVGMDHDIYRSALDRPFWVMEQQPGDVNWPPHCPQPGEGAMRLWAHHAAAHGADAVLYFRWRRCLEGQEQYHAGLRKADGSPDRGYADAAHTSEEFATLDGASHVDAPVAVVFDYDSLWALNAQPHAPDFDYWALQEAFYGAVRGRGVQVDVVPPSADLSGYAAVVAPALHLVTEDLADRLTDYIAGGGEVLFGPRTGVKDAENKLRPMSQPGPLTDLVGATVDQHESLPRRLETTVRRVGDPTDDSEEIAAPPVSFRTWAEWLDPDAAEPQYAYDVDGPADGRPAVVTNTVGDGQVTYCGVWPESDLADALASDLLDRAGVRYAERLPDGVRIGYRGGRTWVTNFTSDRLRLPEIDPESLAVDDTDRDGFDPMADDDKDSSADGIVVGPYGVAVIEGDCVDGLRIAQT
Experimental: To purify β-galactosidase, cultures of Halobacterium sp. NRC-1 (pRK42) (Karan et al., [2013]) were grown to late-log phase (OD600 ∼ 1.0), harvested, resuspended in binding buffer (20 mM phosphate buffer, 2.0 M NaCl, 10% (v/v) glycerol, 30 mM imidazole, pH 7.4), and lysed by sonication (Model 50 Sonic Dismembrator, ThermoFisher Scientific, Waltham, MA). Cell debris was removed by centrifugation (25,000g, 4°C, 10 min) in an Eppendorf 5417C centrifuge, and resulting crude extract was filtered through a 0.2 μm polyethersulfone filter (ThermoFisher Scientific, Waltham, MA). The proteins were purified by using Nickel HisTrap HP Columns (GE Healthcare, Chicago, IL), equilibrated, and washed with binding buffer, and eluted sequentially with 2 M NaCl, 100 mM phosphate buffer (pH 7.4) supplemented with 40, 80, 100, 200, and 500 mM imidazole.
Column fractions were tested for activity with o-nitrophenyl-β-D-galactopyranoside (ONPG, ThermoFisher Scientific, Waltham, MA). Active fractions were combined and protein concentration estimated by absorption at 280 nm with a Shimadzu UV-1601 spectrophotometer (Shimadzu Corporation, Kyoto, Japan). To confirm purity, the protein was analyzed by 10% SDS-PAGE followed by staining with Coomassie Blue (Millipore Sigma, Billerica, MA).
The inhibitory properties of Mg^2+ and ClO4^− ions on the β-galactosidase enzyme were tested through steady-state kinetics with a Shimadzu UV-1601 spectrophotometer. The assay solution containing 10 μg/mL enzyme was preincubated at 50°C followed by addition of ONPG at three different concentrations (1, 2.5, and 5 mM), and absorption was recorded at 420 nm. V0, the Michaelis constant (Km), as well as Vmax, were determined with UV Probe ver. 4.23 software (Shimadzu Corporation, Kyoto, Japan). kcat was calculated from given values of Km and Vmax. After the kinetic experiments were recorded, Lineweaver-Burk plots for each concentration of the inhibitory ion were used to determine whether the inhibition was competitive or noncompetitive. KI was determined by using Dixon plots, which use the reciprocal velocity of multiple steady-state kinetic experiments at multiple substrate and inhibitor concentrations to extrapolate the concentration of inhibitor that results in half-maximal inhibition (Yoshino and Murakami, [2009]). All experiments were run in triplicate and averages used for kinetic analysis.

methanogens = tested on: methanogens; design: method as in Kral et al., 2004; settings: grown on Mars soil simulant; ref Kral et al., 2004; cited from earlier work
Halorubrum lacusprofundi [2] = assay: Aerobic growth rate of Halorubrum lacusprofundi with added salts; format: cell-based
Experimental: (§1) For aerobic growth, cultures of halophiles were shaken in the light in test tubes at 42°C in CM^+ for Halobacterium sp. NRC-1 and at 37°C in ATCC 1682 media for H. lacusprofundi (Berquist et al., [2007]), adjusted to the desired concentration of NaClO4, MgCl2, and Mg(ClO4)2. For anaerobic growth, cultures were grown in the dark without shaking, essentially as described previously (Oren et al., [2014]). OD600 was recorded with a Spectronic 200 (ThermoFisher Scientific, Waltham, MA) test tube reader. Growth rates were calculated by using the slope of a line of regression calculated from early to mid-log phase.

Halobacterium sp. NRC-1 [3] = assay: Aerobic growth rate of Halobacterium sp. NRC-1 with added salts; format: cell-based; settings: Mg2+ added
Experimental: as §1

Halorubrum lacusprofundi [4] = assay: Anaerobic growth assay of Halorubrum lacusprofundi; format: cell-based; settings: 40 mM (0.04 M) perchlorate, dark, no oxygen, 8 days
Experimental: as §1

Halobacterium sp. NRC-1 [5] = assay: Anaerobic growth assay of Halobacterium sp. NRC-1; format: cell-based; settings: 40 mM NaClO4, dark, no oxygen, 8 days
Experimental: as §1

[6] = tested on: Methanobacterium articum M2 VKM B-2372; design: method as in Shcherbakova et al., 2015; settings: 9.8 mM NaClO4; ref Shcherbakova et al., 2015; cited from earlier work
[7] = tested on: Methanobacterium veterum MK4 VKM B-2440; design: method as in Shcherbakova et al., 2015; settings: 9.8 mM NaClO4; ref Shcherbakova et al., 2015; cited from earlier work
Methanosarcina sp. = tested on: Methanosarcina sp.; design: method as in Shcherbakova et al., 2015; settings: 9.8 mM NaClO4; ref Shcherbakova et al., 2015; cited from earlier work

| Compound | type of inhibition [1] | concentration up to which methanogens metabolize (methanogens) | highest concentration at which a measurable growth rate was recorded (Halorubrum lacusprofundi [2]; ATCC 1682 medium) | inhibition of growth at 1.2 M (Halorubrum lacusprofundi [2]; Halorubrum lacusprofundi, 1.2 M Mg2+ (MgCl2 added), read-out: decrease in growth rate) | inhibition of growth at 1.4 M (Halorubrum lacusprofundi [2]; Halorubrum lacusprofundi, 1.4 M Mg2+ (MgCl2 added), read-out: decrease in growth rate) | concentration up to which a substantial growth rate is retained / no significantly deleterious effect (Halorubrum lacusprofundi [2]; MgCl2 added, listed as Mg^2+) | concentration up to which no significantly deleterious effect on growth (Halobacterium sp. NRC-1 [3]) | inhibition at 250000 µM ([1]; 0.5 M Na+ replaced with 0.25 M Mg2+ using magnesium chloride, read-out: decrease in catalytic efficiency) | type of inhibition ([1]; listed as Mg^2+) | anaerobic growth with perchlorate (Halorubrum lacusprofundi [4]) | anaerobic growth with perchlorate (Halobacterium sp. NRC-1 [5]) | type of inhibition ([1]; listed as perchlorate) | type of inhibition ([1]; listed as perchlorate ions) | type of inhibition ([1]; listed as sodium perchlorate) | protein precipitation (salting-out) ([1]; at the concentrations tested) | reduction in methanogenesis [6] | reduction in methanogenesis [7] | reduction in methanogenesis (Methanosarcina sp.) |
| --- | --- | --- | --- | --- | --- | --- | --- | --- | --- | --- | --- | --- | --- | --- | --- | --- | --- | --- |
| [O-][Cl+3]([O-])([O-])O [Mg(ClO4)2, magnesium perchlorate] | mixed inhibitor; also recorded: mixed inhibition | up to 0.06 M | – | – | – | – | – | – | – | – | – | – | – | – | – | – | – | – |
| [Mg+2] [MgCl2, magnesium chloride] | competitive inhibitor | – | 1.4 M | 40% | 80% | 0.9 M and ~1 M | ~1 M | 70% | competitive inhibition | – | – | – | – | – | – | – | – | – |
| [O-][Cl+3]([O-])([O-])O [NaClO4, sodium perchlorate] | – | – | – | – | – | – | – | – | – | able to grow anaerobically | incapable of anaerobic growth | very weak noncompetitive inhibitor | noncompetitive inhibitor | noncompetitive inhibition | no protein precipitation | 80% | 80% | 80% |
